Experimental data published in EP1506767A1, “Use of a carbonylated amine for stimulating hairgrowth and/or for slowing down their loss” (L'OREAL, priority 2003, dated 2005).

Columns and labels:
canaux calcium [1] = assay: Calcium flux inhibition (IC50Ca2+) on SK-N-SH nerve cells; format: cell-based; conditions: concentration inhibiting 50 % of Ca2+ release, read-out: IC50Ca2+ Sur cellules nerveuses SK-N-SH
Excerpt: Par ailleurs, le demandeur a trouvé que les amines de formule (I) et en particulier de formule (II) sont des inhibiteurs de canaux calcium (ou de flux calcique) comme […] ou […]. Or, les inhibiteurs de canaux sont connus comme actifs dans le traitement de la chute des cheveux et sur leur effet bénéfique sur la microcirculation (confère description ci-dessus). Pour qu'une substance soit reconnue comme un inhibiteur des canaux calcium, elle doit pouvoir diminuer la concentration intracellulaire en calcium ou diminuer la liaison du calcium aux protéines intracellulaires comme par exemple la calmoduline, tel que cela est notamment décrit par Galizzi, J. P. et al., J. Biol. Chem. 1987, 262 p 6947; par Y. Okamiya et al., Eur. J. Pharmacol. 1991, 205, […]. Wagner et al., J. Neurosci. 1988, 8, […]. Lee et al., Life Sci. 1984, 35, p 721; par Schoemaker H. et Lauger S. Eur. J. Pharmacol. 1985, 111, p 273 ou encore I. J. Reynolds et al., J. Pharmacol. Exp. Ther. 1986, 237, p 731. Selon le protocole indiqué dans ces documents, […]'inhibition de flux calcique des composés (3), (4), (6) et (7), en comparaison […] sont donnés dans le tableau ci-après.

canaux calcium [2] = assay: Calcium flux inhibition (IC50Ca2+) on HDFa skin fibroblast cells; format: cell-based; conditions: concentration inhibiting 50 % of Ca2+ release, read-out: IC50Ca2+ Sur cellules issues de fibroblastes de la peau HDFa
Excerpt: Par ailleurs, le demandeur a trouvé que les amines de formule (I) et en particulier de formule (II) sont des inhibiteurs de canaux calcium (ou de flux calcique) comme le vérapamil ou l'alvérine. Or, les inhibiteurs de canaux sont connus comme actifs dans le traitement de la chute des cheveux et sur leur effet bénéfique sur la microcirculation (confère description ci-dessus).
Pour qu'une substance soit reconnue comme un inhibiteur des canaux calcium, elle doit pouvoir diminuer la concentration intracellulaire en calcium ou diminuer la liaison du calcium aux protéines intracellulaires comme par exemple la calmoduline, tel que cela est notamment décrit par Galizzi, J. P. et al., J. Biol. Chem. 1987, 262 p 6947; par Y. Okamiya et al., Eur. J. Pharmacol. 1991, 205, p 49; par J. A. Wagner et al., J. Neurosci. 1988, 8, p 3354; par H. R. Lee et al., Life Sci. 1984, 35, p 721; par Schoemaker H. et Lauger S. Eur. J. Pharmacol. 1985, 111, p 273 ou encore I. J. Reynolds et al., J. Pharmacol. Exp. Ther. 1986, 237, p 731.
Selon le protocole indiqué dans ces documents, le demandeur a déterminé l'IC50Ca2+ d'inhibition de flux calcique des composés (3), (4), (6) et (7), en comparaison avec le vérapamil; les résultats sont donnés dans le tableau ci-après. IC50Ca2+ représente la concentration inhibitrice de 50 % de libération de Ca^2+.

[3] = tested on: coculture nerfs/muscles (cellules musculaires striées humaines); assay: Inhibition of muscle fibre contractions in a nerve/muscle coculture model; format: cell-based, humaines; rat; conditions: 10, 50, 100 µM; 60 s incubation; three muscle fibres; triplicate
Method: La molécule de l'exemple 1 a été testée à différentes concentrations, à savoir 10, 50 et 100 µM, sur un modèle de coculture nerfs/muscles, qui permet de recréer un arc moteur en innervant des cellules musculaires striées humaines avec des explants de moelle épinière et de ganglions rachidiens d'embryons de rat.
Ce test est prédictif d'un effet inhibiteur des contractions des fibres musculaires.
Des cellules musculaires humaines, issues de prélèvements de muscles striés de donneurs sains, sont ensemencées dans des puits de 1,8 cm^2 de section (boîtes de culture de 24 puits). Après 10 jours de culture, ces cellules forment une monocouche et fusionnent. A ce stade, des explants de moelle épinière d'embryons de rat de 13 jours contenant les ganglions rachidiens sont déposés sur la culture.
La croissance des neurites est visible en dehors de l'explant de moelle épinière après un jour de culture. Les premières contractions des fibres musculaires sont observées après 5 à 6 jours de coculture et après 3 semaines, toutes les fibres musculaires au voisinage des explants se contractent.
Les cocultures sont utilisées après 21 jours, quand les fibres musculaires sont striées et possèdent des jonctions neuromusculaires différenciées matures. […]

| Structure (SMILES) | IC50 (canaux calcium [1]) [µM] | IC50 (canaux calcium [2]) [µM] | contractions des fibres musculaires [3] |
| --- | --- | --- | --- |
| COC(=O)C1=C(C)NC(C)=C(C(=O)OC)C1c1ccccc1[N+](=O)[O-] [nifédipine, reference compound] | 29 |  |  |
| CCCCCC(=O)CCN(CCCc1ccccc1)CCC(=O)CCCCC [compound 3] | 7 | 18 |  |
| CCCCCC(=O)CCN(CC)CCCc1ccccc1 [compound 4, 1-(N-éthyl, (3-phényl-)propylamino) octan-3-one] | 18 | 30 | bloque les contractions |
| CCCCCC(=O)CCN(CC)CCc1ccc(OC)c(OC)c1 [compound 6] | 32 | 22 |  |
| COc1ccc([C@@H]2Sc3ccccc3N(CCN(C)C)C(=O)[C@@H]2OC(C)=O)cc1 [diltiazem, reference compound] | > 45 |  |  |
| CCN(CCCc1ccccc1)CCCc1ccccc1 [alvérine, reference compound] | 30 |  |  |
| CCCCCC(=O)CCN(CC)Cc1ccccc1 [compound 7] | 17 | 18 |  |
